“Also recorded” adds a separate entry of the source. Bridge positions count the residues as written; N and C are the ends. Square brackets hold non-standard residues; d marks the D form. Ends that are not written are not given here. Peptide text beside a SMILES is read from it. Nle = CCCC[C@H](N)C(=O)O
Experiments:
[1] = Relief of inflammation on administration; type: in vivo; settings: administration of the peptide
[2] = background statement; cited from earlier work
[3] = background statements; injected peripherally or iv, mammals; cited from earlier work
[4] = system: ACTH and β-endorphin secretion; settings: background statements; in vitro and in vivo or iv; cited from earlier work

Row | Molecule | relief of inflammation, in words [1] | gastric acid production, in words [2] | lowering of blood pressure, in words [3] | stimulation of ACTH and β-endorphin secretion / activities, in words [4]
1 | CCCC[C@H](NC(=O)[C@H](CCCCN)NC(=O)[C@H](CCCNC(=N)N)NC(=O)[C@H](CC(C)C)NC(=O)[C@H](CC(C)C)NC(=O)[C@H](CCC(=O)O)NC(=O)[C@@H](CC(C)C)NC(=O)[C@H](CO)NC(=O)[C@H](CC(C)C)NC(=O)[C@H](CC(=O)O)NC(=O)[C@@H](NC(=O)[C@H](CO)NC(=O)[C@@H](NC(=O)[C@H]1CCCN1C(=O)[C@@H]1CCCN1C(C)=O)[C@@H](C)CC)[C@@H](C)CC)C(=O)N[C@H](C(=O)N[C@@H](CCC(=O)O)C(=O)N[C@H](C(=O)N[C@@H](CCC(=O)O)C(=O)N[C@@H](CCCCN)C(=O)N[C@@H](CCC(N)=O)C(=O)N[C@@H](CCC(=O)O)C(=O)N[C@@H](CCCCN)C(=O)N[C@@H](CCC(=O)O)C(=O)N[C@@H](CCCCN)C(=O)N[C@@H](CCC(N)=O)C(=O)N[C@H]1CCC(=O)NCCCC[C@@H](C(=O)N[C@@H](CC(N)=O)C(=O)N[C@@H](CCCNC(=N)N)C(=O)N[C@@H](CC(C)C)C(=O)N[C@@H](CC(C)C)C(=O)N[C@@H](CC(C)C)C(=O)N[C@@H](CC(=O)O)C(=O)N[C@H](C(=O)N[C@H](C(N)=O)[C@@H](C)CC)[C@@H](C)O)NC(=O)[C@@H](Cc2c[nH]cn2)NC(=O)[C@H](C)NC1=O)[C@@H](C)CC)[C@@H](C)CC [Example 8 B, (cyclo 29-32)[Ac-Pro^3, D-Pro^4, D-Leu^11, Nle^17, Glu^29, D-His^31, Lys^32]-sauvagine(3-40)] (Ac-P[dP]ISIDLS[dL]ELLRK[Nle]IEIEKQEKEKQEA[dH]KNRLLLDTI-NH2; lactam 27-30) | relieves inflammation |  |  | 
2 | CCCC[C@H](NC(=O)[C@H](CCC(=O)O)NC(=O)[C@H](CC(C)C)NC(=O)[C@H](CCCC)NC(=O)[C@H](CCC(=O)O)NC(=O)[C@H](CCCNC(=N)N)NC(=O)[C@H](CC(C)C)NC(=O)[C@H](CC(C)C)NC(=O)[C@H](Cc1c[nH]cn1)NC(=O)[C@@H](Cc1ccccc1)NC(=O)[C@@H](NC(=O)[C@H](CC(C)C)NC(=O)[C@H](CC(=O)O)NC(=O)[C@H](CC(C)C)NC(=O)[C@H](CO)NC(=O)[C@@H](NC(=O)[C@H]1CCCN1C(=O)[C@@H]1CCCN1C(C)=O)[C@@H](C)CC)[C@@H](C)O)C(=O)N[C@@H](C)C(=O)N[C@@H](CCCCN)C(=O)N[C@@H](C)C(=O)N[C@@H](CCC(=O)O)C(=O)N[C@@H](CCC(N)=O)C(=O)N[C@@H](CCC(=O)O)C(=O)N[C@@H](C)C(=O)N[C@@H](CCC(=O)O)C(=O)N[C@H]1CCC(=O)NCCCC[C@@H](C(=O)N[C@@H](CC(N)=O)C(=O)N[C@@H](CCCNC(=N)N)C(=O)N[C@@H](CC(C)C)C(=O)N[C@@H](CC(C)C)C(=O)N[C@@H](CC(C)C)C(=O)N[C@@H](CCC(=O)O)C(=O)N[C@@H](CCC(=O)O)C(=O)N[C@@H](C)C(N)=O)NC(=O)[C@@H](Cc2c[nH]cn2)NC(=O)[C@H](C)NC1=O [Example 8 C, (cyclo 30-33)[Ac-Pro^4, D-Pro^5, D-Phe^12, Nle^18,21, Glu^30, D-His^32, Lys^33]-α-helical CRF(4-41)] (Ac-P[dP]ISLDLT[dF]HLLRE[Nle]LE[Nle]AKAEQEAEEA[dH]KNRLLLEEA-NH2; lactam 27-30) | relieves inflammation |  |  | 
3 | CCCC[C@H](NC(=O)[C@H](CCC(=O)O)NC(=O)[C@@H](NC(=O)[C@H](CCCC)NC(=O)[C@H](CC(N)=O)NC(=O)[C@H](CCCNC(=N)N)NC(=O)[C@H](CC(C)C)NC(=O)[C@H](CC(C)C)NC(=O)[C@H](Cc1c[nH]cn1)NC(=O)[C@@H](Cc1ccccc1)NC(=O)[C@@H](NC(=O)[C@H](CC(C)C)NC(=O)[C@H](CC(=O)O)NC(=O)[C@@H](NC(=O)[C@H](CO)NC(=O)[C@@H](NC(=O)[C@H]1CCCN1C(=O)[C@@H]1CCCN1C(C)=O)[C@@H](C)CC)[C@@H](C)CC)[C@@H](C)O)[C@@H](C)CC)C(=O)N[C@@H](C)C(=O)N[C@@H](CCCNC(=N)N)C(=O)N[C@H](C(=O)N[C@@H](CCC(=O)O)C(=O)N[C@@H](CC(N)=O)C(=O)N[C@@H](CCC(=O)O)C(=O)N[C@@H](CCCNC(=N)N)C(=O)N[C@@H](CCC(=O)O)C(=O)N[C@H]1CCC(=O)NCCCC[C@@H](C(=O)N[C@@H](CC(N)=O)C(=O)N[C@@H](CCCNC(=N)N)C(=O)N[C@@H](CCCCN)C(=O)N[C@@H](Cc2ccc(O)cc2)C(=O)N[C@@H](CC(C)C)C(=O)N[C@@H](CC(=O)O)C(=O)N[C@@H](CCC(=O)O)C(=O)N[C@H](C(N)=O)C(C)C)NC(=O)[C@@H](Cc2c[nH]cn2)NC(=O)[C@H](C)NC1=O)[C@@H](C)CC [Example 8 E, (cyclo 30-33)[Ac-Pro^4, D-Pro^5, D-Phe^12, Nle^18,21, Glu^30, D-His^32, Lys^33]-sucker urotensin(4-41)] (Ac-P[dP]ISIDLT[dF]HLLRN[Nle]IE[Nle]ARIENEREEA[dH]KNRKYLDEV-NH2; lactam 27-30) | relieves inflammation |  |  | 
4 | CC[C@H](C)[C@H](NC(=O)[C@@H](NC(=O)[C@H](CC(=O)O)NC(=O)[C@H](CC(C)C)NC(=O)[C@H](CC(C)C)NC(=O)[C@H](CC(C)C)NC(=O)[C@H](CCCNC(=N)N)NC(=O)[C@H](CC(N)=O)NC(=O)[C@H](CC(N)=O)NC(=O)[C@H](C)NC(=O)[C@H](C)NC(=O)[C@H](CCC(N)=O)NC(=O)[C@H](CCC(N)=O)NC(=O)[C@H](CCCCN)NC(=O)[C@H](CCC(=O)O)NC(=O)[C@H](CCCCN)NC(=O)[C@H](CCC(=O)O)NC(=O)[C@H](CCC(N)=O)NC(=O)[C@H](CCCCN)NC(=O)[C@H](CCC(=O)O)NC(=O)[C@@H](NC(=O)[C@H](CCC(=O)O)NC(=O)[C@@H](NC(=O)[C@H](CCSC)NC(=O)[C@H](CCCCN)NC(=O)[C@H](CCCNC(=N)N)NC(=O)[C@H](CC(C)C)NC(=O)[C@H](CC(C)C)NC(=O)[C@H](CCC(=O)O)NC(=O)[C@H](CC(C)C)NC(=O)[C@H](CO)NC(=O)[C@H](CC(C)C)NC(=O)[C@H](CC(=O)O)NC(=O)[C@@H](NC(=O)[C@H](CO)NC(=O)[C@@H](NC(=O)[C@@H]1CCCN1C(=O)[C@@H]1CCCN1C(=O)CNC(=O)[C@@H]1CCC(=O)N1)[C@@H](C)CC)[C@@H](C)CC)[C@@H](C)CC)[C@@H](C)CC)[C@@H](C)O)C(N)=O [sauvagine] |  | inhibit gastric acid production | lower blood pressure | stimulate the secretion of ACTH and β-endorphin
5 | oCRF: ovine corticotropin releasing factor, a 41-residue amidated peptide; the laboratory Standard (SQEPPISLDLTFHLLREVLEMTKADQLAQQAHSNRKLLDIA-NH2; UniProt P01142 148-188, looked up) |  | inhibit gastric acid production | substantially lower blood pressure | stimulate the secretion of ACTH and β-endorphin; also recorded: stimulate ACTH and β-endorphin-like activities (β-END-Li) in vitro and in vivo
6 | r/hCRF: rat/human CRF, a homologous amidated hentetracontapeptide; alternate standard (SEEPPISLDLTFHLLREVLEMARAEQLAQQAHSNRKLMEII-NH2; UniProt P06850 154-194, looked up) |  | inhibit gastric acid production | substantially lower blood pressure | stimulate ACTH and β-endorphin-like activities (β-END-Li) in vitro and in vivo

Source: patent US5824771A, “Cyclic CRF agonists” (The Salk Institute for Biological Studies, priority 1997, dated 1998)
